These results are taken from paper PMC9917184, “Synthesis and Biological Evaluation of Potential Oncoimmunomodulator Agents” (International Journal of Molecular Sciences, 2023).

Usually inhibition stands for the percentage by which the read-out fell short of the control.

The test system of series [1] is Jurkat T cells. Nature of the series: Jurkat T cell viability in co-culture with cancer cells (flow cytometry count). It counts as cell-based. Particulars: Homo sapiens, 24 h, read-out: percentage of living Jurkat cells relative to non-treated co-cultures. The method, boiled down:
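HT-29, MCF-7 or A-549 cells in IFN-γ (10 ng/mL) medium were co-cultured with 5 × 10^5 Jurkat T cells per well and 100 µM compound (DMSO control) for 24 h. Jurkat cells from the supernatant and trypsinized cancer cells were PFA-fixed and counted by flow cytometry. Living cells were expressed as % of untreated co-culture.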

The target of series [2] is T1, membrane PD-L1 (Homo sapiens, UniProt Q9NZQ7).
T1 construct: Alexa Fluor® 647 Rabbit monoclonal Anti-PD-L1 (ab215251); endogenous in cells; host or cells: HT-29, MCF-7, A-549 (A17: MCF-7 only; A14: IFN-gamma-stimulated cancer cells co-cultured with Jurkat T cells)
T1 sequence (Q9NZQ7 19-290): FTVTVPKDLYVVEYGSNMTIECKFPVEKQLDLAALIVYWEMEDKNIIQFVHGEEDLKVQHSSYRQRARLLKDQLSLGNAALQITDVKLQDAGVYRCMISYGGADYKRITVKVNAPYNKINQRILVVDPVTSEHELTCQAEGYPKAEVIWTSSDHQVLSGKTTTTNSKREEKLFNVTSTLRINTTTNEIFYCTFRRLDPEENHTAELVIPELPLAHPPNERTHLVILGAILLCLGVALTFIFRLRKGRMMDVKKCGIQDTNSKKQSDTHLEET
The series can be described thus: Membrane PD-L1 relative quantification by flow cytometry in cancer cells co-cultured with Jurkat T cells. It counts as cell-based. Particulars: 24 h; for remaining activity at 100 µM / inhibition at 100 µM: Jurkat; for remaining activity at 100 µM: relative to non-treated co-cultures, read-out: % PDL1 (membrane); for inhibition at 100 µM: read-out: membrane PD-L1 inhibition rate. The method, boiled down: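 Interferon γ-stimulated human cancer cells co-cultured with Jurkat T cells and treated 24 h with compounds at 100 μM. Cells then fixed in 4% paraformaldehyde and co-stained with Alexa Fluor 647 anti-PD-L1 and FITC anti-VEGFR-2. Membrane levels quantified together by flow cytometry.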

Series [3] concerns MCF-7. The series can be described thus: MCF-7 cell viability in co-culture with THP-1 cells. Conditions: for viability at 100 µM / inhibition at 100 µM: Homo sapiens; for viability at 100 µM: read-out: cancer cell viability (MCF-7); for inhibition at 100 µM: MCF7, read-out: cancer cell inhibition (MCF-7). The format is cell-based, human. The protocol:
The effect of the synthesized compounds on tumor cell proliferation in the presence of human monocytic leukemia cell line THP-1 was also studied. This assay was carried out using MCF-7 as the cancer cell line and different proportions of immune cells. Standard proportions for this assay were 1:5 cancer/immune, and we also carried out this assay using a 2:1 proportion of cancer cells as regards immune THP-1 cells. Assays were performed after 24 and 48 h of treatment and using 100 μM doses of selected compounds.
To study the effect of the compounds on the cell viability in co-culture with Jurkat T cells or THP-1 cells, 10^5 or 2 × 10^5 of the corresponding cancer cells line per well were seeded and incubated for 24 h, then the medium was changed by one cell culture medium supplemented with IFN-γ (10 ng/mL; human, Invitrogen®) and containing 5 × 10^5 or 10^5 Jurkat T cells or THP-1, respectively, per well and 100 µM of the corresponding compound or DMSO for the […] control. After 24 h/48 h of incubation, supernatants were collected to determine Jurkat T or THP-1 living cells, and on the other hand, corresponding cancer cells were collected with trypsin. Both types of suspension cells were fixed with 4% in PBS paraformaldehyde and counted by flow cytometry.

The test system of series [4] is c-Myc. Nature of the series: Total c-Myc relative quantification by flow cytometry in cancer cell lines. The format is cell-based, human.
The target in series [5] is PD-L1 (Homo sapiens, UniProt Q9NZQ7). The series can be described thus: Total PD-L1 relative quantification by flow cytometry in cancer cell lines. On the set-up: Alexa Fluor® 647 Rabbit monoclonal Anti-PD-L1 (ab215251); endogenous in cells; host or cells: HT-29. It counts as cell-based.
Sequence of PD-L1 (Q9NZQ7 19-290): as above
Setting [6] is: A549 co-cultured with Jurkat T cells.
The mark [7] stands for this setting: HT29 co-cultured with Jurkat T cells.
[8] abbreviates: MCF7 co-cultured with Jurkat T cells.
Where [9] appears, read: MCF-7 co-cultured with Jurkat T cells.
The mark [10] stands for this setting: MCF7, 24 h, 1:5 MCF-7/THP-1, 100 μM, 24 h, control = 100.
Setting [11] is: MCF7, 24 h, 2:1 MCF-7/THP-1, 100 μM, 24 h, control = 100.
Where [12] appears, read: MCF7, 48 h, 1:5 MCF-7/THP-1, 100 μM, 48 h, control = 100.
[13] abbreviates: MCF7, 48 h, 2:1 MCF-7/THP-1, 100 μM, 48 h, control = 100.

Structures are written as SMILES. Like-named read-outs stand apart in the source and are kept apart here.

On to `COc1ccc(C(OCCc2ccc(CCn3cc(-c4ccccc4Br)nn3)cc2)(c2ccccc2)c2ccc(OC)cc2)cc1` [Compound 7, 1-(4-(2-(bis(4-methoxyphenyl)(phenyl)methoxy)ethyl)phenethyl)-4-(2-bromophenyl)-1H-1,2,3-triazole], for which the viability at 100 µM was 79 ± 11% in series [1] (A-549/Jurkat T co-culture); 70 ± 8% in series [1] (HT-29/Jurkat T co-culture); 94 ± 12% in series [1] (MCF-7/Jurkat T co-culture); 42 ± 10% in series [3] (setting [10]); 92 ± 11% in series [3] (setting [11]); 41 ± 10% in series [3] (setting [12]). In addition, the viability at 100 µM in series [3] (setting [13]) was 60 ± 13%. Besides, the remaining activity at 100 µM worked out at 73 ± 6% in series [2] (setting [6]), 89 ± 4% in series [2] (setting [7]) and 50 ± 14% in series [2] (setting [8]). The inhibition at 100 µM was 60 to 70% in series [2] (setting [9]) and 40% in series [3] (2:1 MCF-7/THP-1, 100 μM, 48 h).
For `COc1ccc(C(OCCc2ccc(CCn3cc(-c4cccc(Br)c4)nn3)cc2)(c2ccccc2)c2ccc(OC)cc2)cc1` [Compound 5, 1-(4-(2-(bis(4-methoxyphenyl)(phenyl)methoxy)ethyl)phenethyl)-4-(3-bromophenyl)-1H-1,2,3-triazole], the viability at 100 µM in series [1] (A-549/Jurkat T co-culture) stood at 93 ± 9%; in series [1] (HT-29/Jurkat T co-culture) it was 48 ± 1%; in series [1] (MCF-7/Jurkat T co-culture), 96 ± 8%; in series [3] (setting [10]), 52 ± 4%; in series [3] (setting [11]), 107 ± 3%; in series [3] (setting [12]) it was 42 ± 10%. Moreover, the viability at 100 µM in series [3] (setting [13]) was 69 ± 10%. The remaining activity at 100 µM was found to be 115% in series [2] (setting [6]), 153 ± 17% in series [2] (setting [7]) and 43 ± 6% in series [2] (setting [8]). Also, the inhibition at 100 µM is 60 to 70% in series [2] (setting [9]) and 30% in series [3] (2:1 MCF-7/THP-1, 100 μM, 48 h).
Regarding `Cc1c(COc2ccc(CN3CCCCC3C(=O)O)cc2Br)cccc1-c1ccccc1` (centres unmarked) [BMS-8, reference compound], the viability at 100 µM in series [1] (A-549/Jurkat T co-culture) was 99 ± 9%; in series [1] (HT-29/Jurkat T co-culture), 148 ± 11%; in series [1] (MCF-7/Jurkat T co-culture), 53 ± 27%; in series [3] (setting [10]), 91 ± 30%; in series [3] (setting [11]) it was 100 ± 4%; in series [3] (setting [12]), 42 ± 5%. The viability at 100 µM in series [3] (setting [13]) was 58 ± 10%. Also, the remaining activity at 100 µM in series [2] (setting [6]) came out at 103 ± 3%; in series [2] (setting [7]), 105 ± 3%; in series [2] (setting [8]), 97 ± 33%.
Consider `COc1ccc(C(OCCc2ccc(CCn3cc(-c4ccc(Br)cc4)nn3)cc2)(c2ccccc2)c2ccc(OC)cc2)cc1` [Compound 3, 1-(4-(2-(bis(4-methoxyphenyl)(phenyl)methoxy)ethyl)phenethyl)-4-(4-bromophenyl)-1H-1,2,3-triazole], for which the viability at 100 µM in series [1] (A-549/Jurkat T co-culture) was found to be 86 ± 4%; in series [1] (HT-29/Jurkat T co-culture), 108 ± 33%; in series [1] (MCF-7/Jurkat T co-culture), 75 ± 10%; in series [3] (setting [10]), 50%; in series [3] (setting [11]), 83 ± 9%; in series [3] (setting [12]), 28 ± 2%. The viability at 100 µM in series [3] (setting [13]) was determined as 51 ± 17%. For the same compound, the remaining activity at 100 µM is 77 ± 4% in series [2] (setting [6]), 80 ± 2% in series [2] (setting [7]) and 52 ± 9% in series [2] (setting [8]). Moreover, the inhibition at 100 µM was about 20% in series [2] (A-549 co-cultured with Jurkat T cells); about 20% in series [2] (HT-29 co-cultured with Jurkat T cells); 60 to 70% in series [2] (setting [9]); 50% in series [3] (2:1 MCF-7/THP-1, 100 μM, 48 h). Besides, in series [2] (MCF-7 co-cultured with Jurkat T cells, 100 μM), the “membrane PD-L1 inhibition rate” value is given as “half”. Further, the “cancer cell viability (MCF-7)” value in series [3] (1:5 MCF-7/THP-1, 100 μM, 24 h, control = 100, 100 µM) was determined as 52 ± 7%. The “% c-Myc” value worked out at 109 ± 9% in series [4] (HT-29, dose 10 µM); 100 ± 3% in series [4] (HT-29, dose 25 µM); 88 ± 5% in series [4] (HT-29, dose 50 µM); 56 ± 5% in series [4] (MCF-7, dose 10 µM); 62 ± 5% in series [4] (MCF-7, dose 25 µM); 75 ± 9% in series [4] (MCF-7, dose 50 µM). Moreover, the remaining activity at 10 µM amounted to 101 ± 2% in series [5] (24 h, HT-29, dose 10 µM) and 52 ± 2% in series [5] (MCF7, 24 h, MCF-7, dose 10 µM). Moreover, the remaining activity at 25 µM in series [5] (24 h, HT-29, dose 25 µM) amounted to 111 ± 4%; in series [5] (MCF7, 24 h, MCF-7, dose 25 µM), 58 ± 3%. Further, the remaining activity at 50 µM in series [5] (24 h, HT-29, dose 50 µM) is 90 ± 3%; in series [5] (MCF7, 24 h, MCF-7, dose 50 µM) it was 69 ± 4%.
